From patent US7041661B2, “Use of thiazolobenzoheterocycles for treating multiple sclerosis” (Aventis Pharmaceuticals Inc., priority 2002, dated 2006) come the findings set out here.

Assay [1] deals with Experimental Allergic Encephalomyelitis (EAE) of female DA (Dark Agouti) rats. The assay is described as follows: Rat spinal cord homogenate induced EAE in DA rats, daily neurological score. The class given is in vivo. The following applies: doses of 1, 3 and 10 mg/kg p.o., twice daily for 28 days from one day post-immunization. The protocol:
EAE was induced in female DA (Dark Agouti) rats (8 wks old, from Harlan) by immunization with the 25% w/v rat spinal cord homogenate (r-SCH) in saline emulsified with an equal volume of CFA supplemented with 40 mg/10 ml heated-killed mycobacterium tuberculosis H37Ra (BD Bioscience). Rats were injected s.c. with 0.2 ml of emulsion in the base of tail.
Rats were scored daily before treatment starting from day 5 post-immunization through the entire experiment by a well-known behavioral scale system: Score 0, normal; 0.5, partial limp tail; 1, complete limp tail; 2, abnormal gait; 3, partial hind limb paralysis, and mice unable to walk normally; 3.5, one leg is completely paralyzed, and one leg is partially paralyzed; 4, complete hind limb paralysis; 4.5, Legs are completely paralyzed and Moribund; 5, death due to EAE. Compound A and Compound B (active metabolite of Compound A), two representatives of thiazolobenzoheterocyclic compounds, were examined in DA rat EAE procedure.
Compound A and Compound B were given one-day post-immunization, p.o. route, twice daily for 28 days.

Assay [2] has as its system Experimental Allergic Encephalomyelitis (EAE) of female SJL mice. Description: PLP 139-151 induced EAE in SJL/J mice, daily neurological score. The assay is classed as in vivo, mouse. From the text: The utility of the thiazobenzohetercyclic compounds of formula I for the treatment of various conditions associated with multiple sclerosis can be assessed by measuring their ability to inhibit effects of experimental allergic encephalomyelitis (EAE) in laboratory animals.
Experimental Autoimmune Encephalomyelitis (EAE) is a T-cell-mediated autoimmune disease of the nervous system that develops in susceptible animals following sensitization with either whole spinal cord homogenate or a myelin component. It is known that EAE reflects or mimics many of the pathophysiological steps in MS, including the role of certain adhesion molecules, the influence of T cells and antibodies reactive to components of the myelin sheath, the participation of metalloproteases in penetrating the blood-brain barrier, and the cytotoxic role of certain cytokines. One of the marketed MS therapies, glatiramer acetate (Copaxone®) was developed preclinically based on its success in treating various models of EAE.
EAE was induced in female SJL/J mice (8 wks old, from Jackson Laboratories) by immunization with the myelin Proteolipid Protein (PLP 139-151) from BACHEM, Bioscience. PLP139-151 was dissolved in H2O:PBS (1:1) solution to a concentration of 7.5 mg/10 ml (for 75 ug PLP per mouse) and emulsified with an equal volume of CFA supplemented with 40 mg/10 ml heated-killed mycobacterium tuberculosis H37Ra (BD Bioscience). Mice were injected s.c. with 0.2 ml of peptide emulsion in the abdominal flank (0.1 ml on each side). On the same day and 72 hr later, mice were injected i.v. with 35 ng and 50 ng of Bordetella Pertussis toxin (List Biological Laboratories ) in saline, respectively.
Compound A, one representative of thiazolobenzoheterocyclic compounds, was examined in the PLP/SJL mouse EAE model.
Study 1: There were five groups, i.e., vehicle (water), Compound A at doses of 5, 10 and 20 mg/kg and dexamethasone (DEX) at a dose of 3 mg/kg. Treatment was begun on day 7 after PLP immunization. Mice were dosed twice per day for 22 days. Results are as follows:
Study 2: There were five groups, i.e., vehicle (water), Compound A at doses of 10, 20 and 30/40 mg/kg and dexamethasone (DEX) at a dose of 3 mg/kg. Treatment was begun on day 7 after PLP immunization. Mice were dosed twice per day for 18 days.

[3] abbreviates: Study 2, SJL EAE mice, twice per day for 18 days from day 7.

Turning to `N=c1sc2cc(C(F)(F)F)cc3c2n1CC[S+]([O-])C3` (racemic) [Compound A, (R,S)-2-imino-9-trifluoromethyl-4,5-dihydro-2H,7H-thiazolo[3,4,5-de][4,1]benzothiazepine-6-oxide], in assay [1], the EAE incidence result is listed as “significantly reduced”, the cumulative neurological scores entry is reported as “significantly reduced” and the maximal neurological scores result was “significantly reduced”. In addition, the “neurological deficits in the EAE mice (FIG. 1)” value in assay [2] (Study 1, doses of 10 and 20 mg/kg p.o., twice per day for 22 days from day 7 after PLP immunization, vs vehicle) is recorded as “significantly reduced”. Moreover, in assay [2] (setting [3]), the EAE incidence entry is listed as “reduced” and the disease onset result is given as “delayed”. In addition, the “neurological scores in SJL EAE mice” value in assay [2] (Study 2, doses of 10 and 20 mg/kg, twice per day for 18 days from day 7 after PLP immunization) was “significant reduced”.

As for `N=c1sc2cc(C(F)(F)F)cc3c2n1CCS(=O)(=O)C3` [Compound B, (R,S)-2-imino-9-trifluoromethyl-4,5-dihydro-2H,7H-thiazolo[3,4,5-de][4,1]benzothiazepine-6,6-dioxide], in assay [1], the EAE incidence entry was “significantly reduced”, the cumulative neurological scores result is recorded as “significantly reduced” and the maximal neurological scores entry is listed as “significantly reduced”.
